Laboratory results from patent US8138146B2, “Antiviral peptide and antiviral agent” (priority 2006, dated 2012).
Like-named read-outs stand apart in the source and are kept apart here. No end group written: not given here.

Columns and labels:
Type in all cases: cell-based
[1] = tested on: HVT (turkey herpes virus); experiment: HVT multiplication suppression, plaque assay in CEF cells; conditions: for Ratio (relative ratio of virus titer, no peptide = 1) / Titer: HVT FC-126 strain in CEF cells; for Titer: six days; for viral multiplication suppression effect (antiviral activity), in words: HVT in CEF cells, peptide 10, 50, 100 μM, number and size of plaques
[2] = tested on: MDV (Marek's disease virus); conditions: for antiviral activity (viral multiplication suppression effect) against MDV, in words: MDV in CEF cells, peptide 50 and 100 μM; for Ratio / Titer: MDV type 1 Md5 strain in CEF cells; for Titer: four days
[3] = tested on: MDCK (Madrin Darby Canine Kidney) cell; experiment: Cytotoxicity control, MDCK cells without virus (Example 4); conditions: 48 hours
Experimental: The culture supernatant was removed from wells where a full sheet (monolayer) composed of MDCK cells was formed by the above culture. 2 mL of PBS was added to the wells and the wells were washed. This washing was repeated twice. Next, a viral solution prepared with MEM medium (no FBS added, containing 0.02% dextran and 1 μg/mL trypsin) so as to have 10^4 PFU/mL was used for inoculation at 0.1 mL per well, and culture was incubated in the presence of 5% CO2, at 34° C. for one hour, to adsorb the virus to the cells. After the incubation, was added 2 mL of MEM medium (no FBS added, containing 0.02% dextran and 1 μg/mL trypsin) containing the test peptide at a given concentration so as to have 50 μM and 10 μM final concentrations of peptide in each well after addition. Note that a well was prepared as a control plot (control), in which 2 mL of the above-mentioned MEM medium not containing peptide was added. In addition, as the control group for evaluating the cytotoxicity of the test peptide, 2 mL of MEM medium (no FBS added, containing 0.02% dextran and 1 μg/mL trypsin) containing the test peptide at a given concentration was added each to wells (with full sheet formed) containing MDCK cells to which the above-mentioned viral solution was not added (that is to say, not containing virus). Then incubation was carried out in the presence of 5% CO2 at 34° C. for 48 hours.

Substance	Ratio (relative ratio of virus titer, no peptide = 1) ([1]; peptide 10 μM)	Titer ([1]; peptide 10 μM)	Ratio (relative ratio of virus titer, no peptide = 1) ([1]; peptide 50 μM)	Titer ([1]; peptide 50 μM)	Ratio (relative ratio of virus titer, no peptide = 1) ([1]; peptide 100 μM)	Titer ([1]; peptide 100 μM)	viral multiplication suppression effect (antiviral activity), in words [1]	other results
RKKKRKV LALKAGLDI-CONH2 (RKKKRKVLALKAGLDI-NH2) [Sample 4, modified SV40 NLS plus modified mouse PKI NES with one leucine deleted; 16 residues]	0.95	1.8 × 10^4 PFU/mL	0.47	9.0 × 10^3 PFU/mL	0.24	4.5 × 10^3 PFU/mL		antiviral activity (viral multiplication suppression effect) against MDV, in words [2]: satisfactory antiviral activity; Ratio ([2]; peptide 50 μM): 0.63; Titer ([2]; peptide 50 μM): 4.27 × 10^6 TCID50; Ratio ([2]; peptide 100 μM): 0.47; Titer ([2]; peptide 100 μM): 3.16 × 10^6 TCID50
RKKKRKV-CONH2 (RKKKRKV-NH2) [Comparative Sample 4, reference compound]							no viral multiplication suppression effect	
RQARRNRRRRWR-CONH2 (RQARRNRRRRWR-NH2) [Comparative Sample 1, reference compound]							no viral multiplication suppression effect	
LPPLERLTLD RQARRNRRRRWR-CONH2 (LPPLERLTLDRQARRNRRRRWR-NH2) [Sample 2, NES … on the N-terminal side, NLS … on the C-terminal side; 22 residues]	0.91	8.0 × 10^4 PFU/mL	0.59	5.2 × 10^4 PFU/mL	0.57	5.0 × 10^4 PFU/mL		
RQARRNRRRRWR LPPLERLTLD-CONH2 (RQARRNRRRRWRLPPLERLTLD-NH2) [Sample 1, HIV REV-derived NLS on the N-terminal side, HIV-derived NES on the C-terminal side; 22 residues]	0.75	7.8 × 10^4 PFU/mL	0.25	2.6 × 10^4 PFU/mL	0.13	1.4 × 10^4 PFU/mL		antiviral activity (viral multiplication suppression effect) against MDV, in words [2]: satisfactory antiviral activity; Ratio ([2]; peptide 50 μM): 0.36; Titer ([2]; peptide 50 μM): 2.40 × 10^6 TCID50; Ratio ([2]; peptide 100 μM): 0.1; Titer ([2]; peptide 100 μM): 6.76 × 10^5 TCID50
YGRKKRRQRRRLPPLERLTLD-NH2 [Sample 3, YGRKKRRQRRR LPPLERLTLD-CONH2]								cytotoxicity [3]: no cytotoxicity was observed
LPPLERLTLD-CONH2 (LPPLERLTLD-NH2) [Comparative Sample 2, reference compound]							no viral multiplication suppression effect	
YGRKKRRQRRR-CONH2 (YGRKKRRQRRR-NH2) [Comparative Sample 3, reference compound]							no viral multiplication suppression effect	
